Data on two compounds can be found in patent US20040248762A1, “Malodor counteractant compositions” (priority 2003, published 2004).

Experiment [1] is described as follows: MOC of sweat malodor on fabric swatches. The arrangement: species or system human. The following applies: summary of Table 6. The method, then:
The following fabric treatment solutions were prepared:
1. A solution of ethanol and Cremophor (a hydrogenated ethoxylated castor oil marketed by BASF Corp., Mount Olive, N.J.) containing 10% (wt) of dihexyl fumerate (DHF).
2. A solution of ethanol and Cremophor containing 10% (wt) of OMC.
3. A solution of ethanol and Cremophor containing 5% (wt) of DHF+5% (wt) OMC.
Five (5) fabric swatches were prepared, and labeled A-E. Swatch A was designated as the control swatch with no malodor. 100 μl of sweat malodor was placed in the middle of swatches B-E. Swatch B was designated as the control swatch for the malodor. The swatches were allowed to equilibrate with the malodor for 20 minutes. Onto swatches C-E, the following solutions were sprayed:
The malodor intensity on the cotton swatches was evaluated as follows:
The malodor intensity on swatch B (Malodor Control) was identified as a 5 (overpoweringly strong) on the scale of 1-5 set forth below at every time point, and the rest of swatches were evaluated based on that standard.

Experiment [2] is described as follows: Synthetic axilla malodor on cotton pads, panel rating of malodor strength. The arrangement: species or system human. Particulars: scale 5 overpowering to 1 not detectable; for 5% OMC + 5% Compound B (axilla malodor panel score): mixture 5% OMC + 5% Compound B. How it is done: 100 μl of synthetic axilla malodor was placed onto cotton pads. 0.4 g of an ethanolic solution containing 10% (wt) of a test compound identified in Table 1 was placed on each axilla malodor treated cotton pad. Each pad was allowed to dry 15 for minutes, and then evaluated using a 10-member panel after 3 hours. The test cotton pads were randomized, and each panelist was asked to check a box that represented the strength of the axilla malodor using the following scale:
In this example, the MOC effect of various mixtures of a Class A MOC compound and a Class B MOC compound (i.e., dihexyl fumerate as disclosed in Kulka, U.S. Pat. No. 3,074,892) were evaluated using the same test and malodor evaluation procedures as set forth in Example 1. Each test solution contained 5% (wt) DHF and 5% (wt) of the Class A compound identified in Table 3. The MOC effect was evaluated as in Example 1.
Various mixtures of OMC (a Class A Compound) and a Class B compound (i.e., various cyclohexyl esters as disclosed in Schleppnik '221) as identified in Table 4 below were made according to the procedure set forth in Example 1. The MOC of each mixture was evaluated using the procedure set forth in Example 1.

“And” between values parts separate entries of the source, which are not always exact repeats. Equal entries are not always repeated.

For the compound `CCCCCCOC(=O)/C=C/C(=O)OCCCCCC` [Dihexyl Fumerate, reference compound], in experiment [1], the “MOC effect on sweat malodor on fabric (in words)” value is reported as “had a MOC effect”. For the same compound, the “10% test (Compound B Alone) (axilla malodor panel score)” value in experiment [2] (10% Compound B alone, procedure of Example 1) amounted to 2.6. The “5% OMC + 5% Compound B (axilla malodor panel score)” value in experiment [2] (procedure of Example 1) was 2.3.

Regarding `CCCCC(CC)COC(=O)/C=C/c1ccc(OC)cc1` (stereo not drawn) [OMC, Octyl methoxy cinnamate], the “MOC effect on sweat malodor on fabric (in words)” value in experiment [1] is on record as “had a MOC effect”. For the same compound, in experiment [2] (10% OMC alone, run beside the Compound B of that table line), the “10% OMC (Alone) (axilla malodor panel score)” value was 3.1 and 2.6 and 3.2. The “5% OMC + 5% Compound B (axilla malodor panel score)” value in experiment [2] (procedure of Example 1) is recorded as “acts at least additively”.
